For assay [1], the target named is SARS-CoV-2 M^pro-N (N-terminal domain with the catalytic core) (Severe acute respiratory syndrome coronavirus 2, UniProt P0DTD1). The assay is classed as binding. The settings on record: catalytic pocket, probably more than one site.
In assay [2] the target is SARS-CoV-2 M^pro (main protease, 3CL^pro), full-length (Severe acute respiratory syndrome coronavirus 2, UniProt P0DTD1). Description: fluorescent peptide cleavage assay, two doses. Type of assay: biochemical. The conditions noted are these: unreliable; estimated from two doses; limited by low aqueous solubility.

Consider two compounds from paper doi:10.1101/2020.05.05.079848v2 (biorxiv, 2020).

Consider `O=C(O)c1cccnc1` [niacin], for which the “1H-15N HSQC chemical shift perturbation” value in assay [1] was “niacin perturbs H41, G143, N51, and V186”. For the compound `CSc1nc2cc(Cl)c(Oc3cccc(Cl)c3Cl)cc2[nH]1` [triclabendazole], in assay [2], the IC50 is ~ 70 μM.
